Data taken from patent US20160331853A1, “COMPOSITIONS FOR RADIOTHERAPY AND USES THEREOF” (The Trustees of Columbia University in the City of New York, priority 2014, published 2016).
Several values for one entry are separate records, joined by “and”; a condition that tells them apart may be missing. Identical values can stand only once. Counter-ions that a name gives are not always drawn. Like-named read-outs stand apart in the source and are kept apart here.

How the values were obtained:
NCI-28H cells [1] = settings: 72 hrs
[2] = flow cytometry, after multiple PBS washes
[3] = Example 9: binding of bleomycin to talc, fluorescent microscopy (DAPI filter); settings: 50 mg talc, 1 or 100 μg/mL bleomycin
Procedure: 1. Reconstitute bleomycin by adding 100 μL of water to 1 mg of bleomycin. Get the concentration to 10 mg/mL and mix, keeping the drug at 4° C.
9. Incubate overnight at 4° C., constantly mixing it.
3. Wash tubes 3× with 1 mL of water.
4. After last wash, complete, remove the water and resuspend the pellet in Vectashield mounting medium for fluorescence.
6. Check slides under fluorescent microscope under DAPI filter.

[4] = Example 1: binding of Anti-Avidin FITC and Biotin Rhodamine to talc, fluorescence microscopy; settings: 30 mg talc; FITC and Rhodamine filters
From the text: This combinant nanoparticle was observed under microscopy for efficiency and efficacy. 1. […] 4. […] 5. […] 3. […] 4. […] 7. […] PBS+0.05% Tween20). 9. Analyze under microscope using FITC filter and Rhodamine filter.

[5] = Example 25: non-specific binding of Biotin-Rhodamine to talc after washing with buffers of different pH, fluorescent assay 496/520 nm
Procedure: Plan: incubate talc with Biotin Rhodamine. Make washings using different pH buffers: PBS, TBS (pH 8.0), Citrate buffer (pH 4.8). Run fluorescent assay. 1. […] Label tubes as #1, #2, #3, #4. 2. Add to each tube 500 μL 1×PBS. 3. […] 4. Mix well, incubate all tubes for 1 hr at 4° C., rotator. Protect from light. 5. […] (Centrifuge speed −3200 rpm for 3 min) 7. Add to all tubes 200 μL PBS, mix well. 8. […] 9. Run fluorescent assay using settings excitation/emission as 496 nm/520 nm.

NCI-28H cells [6] = experiment: Example 21: cytotoxicity (MTS) assay, NCI-28H cells treated with doxorubicin, cisplatin, paclitaxel, talc alone, talc bound to each drug; format: cell-based; settings: for AVERAGE reading: cells + DOX: NCI-28H, 72 hrs; for Average reading: cells + cisplatin: absorbance 490 nm; for Average reading: cells + cisplatin / % survival from untreated cells (cells + cisplatin): NCI-28H cells
[7] = Example 2: Avidin and Avidin-Rhodamine binding to talc after PBS and 0.2% EDTA washes, fluorescent microscope; settings: 100 mg talc; 3x PBS, 3x 0.2% EDTA washes
Procedure: The resulting mixtures were then washed with PBS and then washed with 0.2% EDTA.
3. Mix 1 mL of 100 μM of Avidin with 500 μL of 30.3 μM of Avidin Rhodamine (keep lights off).
4. […] Mix well to bring the dry talc powder to evenly distributed reaction solution.
8. Place tubes on the rotator and incubate overnight at 4° C.
5. Continue to wash all “b” labeled tubes with 0.2% EDTA. Wash 3× in 0.5 mL EDTA.
7. View slides under fluorescent microscope.

NCI-28H cells [8] = experiment: Example 22: cytotoxicity (MTS) assay, NCI-28H cells treated with carboplatin, mitomycin, gemcitabine, talc alone, talc bound to each drug; settings: for % survival from untreated cells: cells + drug, carboplatin / Average reading: cells + drug, carboplatin / Average absorbance reading: cells + drug, gemcitabine / % survival cells: cells + drug only: NCI-28H cells; for Average reading: cells + drug, carboplatin: absorbance 490 nm; for Average absorbance reading: cells + drug, gemcitabine: 490 nm, Table 79; for % survival cells: cells + drug only: Table 80

Bleomycin sulfate
% survival NCI-28H cells after treatment with BLEOMYCIN (NCI-28H cells [1]; Bleomycin 0.004 ug/ml): 92.41%
% survival NCI-28H cells after treatment with BLEOMYCIN (NCI-28H cells [1]; Bleomycin 0.015 ug/ml): 88.25%
% survival NCI-28H cells after treatment with BLEOMYCIN (NCI-28H cells [1]; Bleomycin 0.06 ug/ml): 93.38%
% survival NCI-28H cells after treatment with BLEOMYCIN (NCI-28H cells [1]; Bleomycin 0.24 ug/ml): 91.86%
% survival NCI-28H cells after treatment with BLEOMYCIN (NCI-28H cells [1]; Bleomycin 0.97 ug/ml): 86.19%
% survival NCI-28H cells after treatment with BLEOMYCIN (NCI-28H cells [1]; Bleomycin 3.9 ug/ml): 71.05%
% survival NCI-28H cells after treatment with BLEOMYCIN (NCI-28H cells [1]; Bleomycin 15.6 ug/ml): 74.60%
% survival NCI-28H cells after treatment with BLEOMYCIN (NCI-28H cells [1]; Bleomycin 62.5 ug/ml): 68.76%
% survival NCI-28H cells after treatment with BLEOMYCIN (NCI-28H cells [1]; Bleomycin 250 ug/ml): 47.13%
% survival NCI-28H cells after treatment with BLEOMYCIN (NCI-28H cells [1]; Bleomycin 1000 ug/ml): 24.92%
binding of bleomycin to talc [2]: binds to talc and remains on surface of talc even following multiple PBS washes
fluorescent imaging of talc incubated with bleomycin [3]: no difference in fluorescent imaging between negative control and talc incubated with bleomycin

Biotin Rhodamine 110
binding to talc, microscopy [4]: binding to talc
effect of pH of washing buffers on binding to talc ([5]; pH 4.8-8.0): pH does not affect the binding
Average fluorescent signal (Rhodamine 110) ([5]; talc/Biotin washed with Citrate buffer, pH 4.8): 14027.61
Average fluorescent signal (Rhodamine 110) ([5]; talc/Biotin washed with PBS): 13760.41
Average fluorescent signal (Rhodamine 110) ([5]; talc/Biotin washed with TBS, pH 8.0): 12868.68

COc1cccc2c1C(=O)c1c(O)c3c(c(O)c1C2=O)C[C@@](O)(C(=O)CO)C[C@@H]3O[C@H]1C[C@H](N)[C@H](O)[C@H](C)O1 [DOX, Doxorubicin Hydrochloride]
AVERAGE reading: cells + DOX (NCI-28H cells [6]; DOX 0.2 μM): 0.89
AVERAGE reading: cells + DOX (NCI-28H cells [6]; DOX 1 μM): 0.67
AVERAGE reading: cells + DOX (NCI-28H cells [6]; DOX 5 μM): 0.63

Avidin-Rhodamine: Rhodamine Conjugated Avidin from Rockland [reference compound]
binding to talc after washing [7]: remained bound to talc despite multiple washes

N.N.O=C([O-])C1(C(=O)[O-])CCC1.[Pt+2] [carboplatin]
% survival from untreated cells: cells + drug, carboplatin (NCI-28H cells [8]; carboplatin 0.006 μM): 90.84% and 94.28%
Average reading: cells + drug, carboplatin (NCI-28H cells [8]; carboplatin 0.006 μM): 1.504
% survival from untreated cells: cells + drug, carboplatin (NCI-28H cells [8]; carboplatin 0.8 μM): 85.98% and 87.53%
Average reading: cells + drug, carboplatin (NCI-28H cells [8]; carboplatin 0.8 μM): 1.4238
% survival from untreated cells: cells + drug, carboplatin (NCI-28H cells [8]; carboplatin 4 μM): 96.93% and 93.62%
Average reading: cells + drug, carboplatin (NCI-28H cells [8]; carboplatin 4 μM): 1.605
% survival from untreated cells: cells + drug, carboplatin (NCI-28H cells [8]; carboplatin 20 μM): 104.81% and 99.20%
Average reading: cells + drug, carboplatin (NCI-28H cells [8]; carboplatin 20 μM): 1.7355
% survival from untreated cells: cells + drug, carboplatin (NCI-28H cells [8]; carboplatin 100 μM): 83.82% and 79.53%
Average reading: cells + drug, carboplatin (NCI-28H cells [8]; carboplatin 100 μM): 1.388
% survival from untreated cells: cells + drug, carboplatin (NCI-28H cells [8]; carboplatin 500 μM): 37.38% and 35.14%
Average reading: cells + drug, carboplatin (NCI-28H cells [8]; carboplatin 500 μM): 0.6189

N.N.[Cl][Pt][Cl] [cisplatin, Cisplatin]
Average reading: cells + cisplatin (NCI-28H cells [6]; Cisplatin 0.0013 μM): 1.37
Average reading: cells + cisplatin (NCI-28H cells [6]; Cisplatin 0.0064 μM): 1.19
Average reading: cells + cisplatin (NCI-28H cells [6]; Cisplatin 0.8 μM): 1.23
Average reading: cells + cisplatin (NCI-28H cells [6]; Cisplatin 4 μM): 1.18
Average reading: cells + cisplatin (NCI-28H cells [6]; Cisplatin 20 μM): 0.48
Average reading: cells + cisplatin (NCI-28H cells [6]; Cisplatin 100 μM): 0.59
% survival from untreated cells (cells + cisplatin) (NCI-28H cells [6]; cisplatin 0.0013 (μM per Table 63)): 91.07%
% survival from untreated cells (cells + cisplatin) (NCI-28H cells [6]; cisplatin 0.0064 (μM per Table 63)): 79.21%
% survival from untreated cells (cells + cisplatin) (NCI-28H cells [6]; cisplatin 0.032 (μM per Table 63)): 76.66%
% survival from untreated cells (cells + cisplatin) (NCI-28H cells [6]; cisplatin 0.16 (μM per Table 63)): 79.74%
% survival from untreated cells (cells + cisplatin) (NCI-28H cells [6]; cisplatin 0.8 (μM per Table 63)): 82.09%
% survival from untreated cells (cells + cisplatin) (NCI-28H cells [6]; cisplatin 4 (μM per Table 63)): 78.41%
% survival from untreated cells (cells + cisplatin) (NCI-28H cells [6]; cisplatin 20 (μM per Table 63)): 31.99%
% survival from untreated cells (cells + cisplatin) (NCI-28H cells [6]; cisplatin 100 (μM per Table 63)): 39.35%

Nc1ccn([C@@H]2O[C@H](CO)[C@@H](O)C2(F)F)c(=O)n1 [gemcitabine, Gemcitabine, reference compound]
cytotoxicity to NCI-28H cells, conclusion (NCI-28H cells [8]): clear cytotoxic effect
Average absorbance reading: cells + drug, gemcitabine (NCI-28H cells [8]; Gemcitabine 0.0026 uM): 2.034
% survival cells: cells + drug only (NCI-28H cells [8]; Gemcitabine 0.0026 uM): 114.61%
Average absorbance reading: cells + drug, gemcitabine (NCI-28H cells [8]; Gemcitabine 0.013 uM): 1.914
% survival cells: cells + drug only (NCI-28H cells [8]; Gemcitabine 0.013 uM): 107.85%
Average absorbance reading: cells + drug, gemcitabine (NCI-28H cells [8]; Gemcitabine 0.064 uM): 1.43
% survival cells: cells + drug only (NCI-28H cells [8]; Gemcitabine 0.064 uM): 80.60%
Average absorbance reading: cells + drug, gemcitabine (NCI-28H cells [8]; Gemcitabine 8 uM): 1.004
% survival cells: cells + drug only (NCI-28H cells [8]; Gemcitabine 8 uM): 56.58%
Average absorbance reading: cells + drug, gemcitabine (NCI-28H cells [8]; Gemcitabine 40 uM): 1.0663
% survival cells: cells + drug only (NCI-28H cells [8]; Gemcitabine 40 uM): 60.09%
Average absorbance reading: cells + drug, gemcitabine (NCI-28H cells [8]; Gemcitabine 200 uM): 0.9352
% survival cells: cells + drug only (NCI-28H cells [8]; Gemcitabine 200 uM): 52.70%
